Columns and labels:
[1] = target: integrase (Human immunodeficiency virus type 1 group M subtype B, UniProt P04585); test: Integrase inhibition assay (microtiter plate strand transfer, substrate DNA/target DNA, anti-digoxigenin ELISA); assay type: biochemical; settings: concentration of the compound at percent inhibition 50%; 30° C. for 1 hour; OD at 405 nm; read-out: IC50 (converted)
Method: The inhibitory activities against integrase of the compounds in the present invention have been determined by the assay described below.
(1) Preparation of DNA Solutions.
Substrate DNA and target DNA, which sequences were indicated below, were synthesized by Amersham Pharmacia Biotech and dissolved in KTE buffer (composition: 100 mM KCl, 1 mM EDTA, 10 mM Tris-HCl (pH 7.6)) at concentration of 2 pmol/μl and 0.5 pmol/μl, respectively. The DNA solutions were annealed with each complement by slowly cooling after heating.
(2) Calculations of the Percent Inhibitions (the IC50 Values of Test Compounds)
Streptavidin, obtained from Vector Laboratories, was dissolved in 0.1 M carbonate buffer (composition: 90 mM Na2CO3, 10 mM NaHCO3) at concentration of 40 µg/ml. After coating each well of microtiter plates (obtained from NUNC) with 50 μL of the above solution at 4° C. over night, each well was washed twice with PBS (composition: 13.7 mM NaCl, 0.27 mM KCl, 0.43 mM Na2HPO4, 0.14 mM KH2PO4) and blocked with 300 μl of 1% skim milk in PBS for 30 min. Additionally, each well was washed twice with PBS and added 50 μl of substrate DNA solution (0.04 pmol/μl) diluted to one fiftieth with NTE buffer (composition: 1M NaCl, 10 mM Tris-HCl (pH8.0), 1 mM EDTA). The microtiter plates were kept at room temperature for 30 min. Then, each well was washed twice with PBS and once with H2O.
Subsequently, in the each well prepared above were added 45 μl of the reaction buffer prepared from 12 μl of the buffer (composition: 150 mM MOPS (pH 7.2), 75 mM MnCl2, 50 mM 2-mercaptoethanol, 25% glycerol, 500 μg/ml bovine serum albumin-fraction V), 1 μl of target DNA (5 pmol/μl), and 32 μl of the distilled water. Additionally, 6 μl of either a test compound in DMSO or DMSO for positive control (PC) was mixed with the above reaction buffer, then 9 μl of an integrase solution (30 pmol) was added and mixed well. In the well of negative control (NC) was added 9 μl of the integrase dilution buffer (composition: Hepes (pH7.6), 400 mM potassium glutamate, 1 mM EDTA, 0.1% NP-40, 20% glycerol, 1 mM DTT, 4M urea).
The microtiter plates were incubated at 30° C. for 1 hour. The reaction solution was removed and each well was washed twice with PBS. Subsequently, each well of the microtiter plates was filled with 100 μl of anti-digoxigenin antibody labeled with alkaline phosphatase (Sheep Fab fragment: obtained from Boehringer) and incubated at 30° C. for 1 hour. Then, each well was washed twice with 0.05% Tween20 in PBS and once with PBS. Next, 150 μl of the Alkaline phosphatase reaction buffer (composition: 10 mM p-Nitrophenylphosphate (obtained from Vector Laboratories), 5 mM MgCl2, 100 mM NaCl, 100 mM Tris-HCl (pH 9.5)) was added in each well. The microtiter plates were incubated at 30° C. for 2 hours. The optical density (OD) at 405 nm of each well was measured and the percent inhibition was determined by the following expression. The percent inhibition (%)=100[1−{(C abs.−NC abs.)/(PC abs.−NC abs.)}] • C abs.; the OD of the well of the • NC abs.: the OD of the negative control (NC) • PC abs.: the OD of the positive control (PC)
When the percent inhibition (%) is X % at the concentration of x μg/ml and the percent inhibition (%) is Y % at the concentration of y μg/ml, one of which is more than 50% and the other is less than 50%, IC50 can be determined by the following expression. IC50(μg/ml)=x−{(X−50),(x−y)/(X−Y)}
Compound No. in the Table 1 is the same as compound No. of the above example.

SMILES | IC50 [1] [nM] | melting point [°C]
O=C1C(O)=C(c2cc(CCc3ccccc3)ncn2)CN1C1CCCCC1 [Compound B-6-d, 1-Cyclohexyl-3-hydroxy-4-(6-phenethylpyrimidine-4-yl)-1,5-dihydropyrrole-2-one] | 6600 | 248 to 250
Cn1ccc(C(=O)c2ccc(Cc3ccc(F)cc3)o2)c(O)c1=O [Compound J-4, 4-[5-(4-fluorobenzyl)furan-2-carbonyl]-3-hydroxy-1-methyl-1H-pyridine-2-one] | 794 | 145 to 147
O=c1c(O)c(-c2ccccn2)oc2cccc(OCc3ccc(F)cc3)c12 [Compound C-22, 5-[(4-fluorobenzyl)oxy]-3-hydroxy(2-pyridine-2-yl)-4H-1-benzopyrane-4-one] | 1320 | 213
O=C(c1ccc(Cc2ccc(F)cc2)o1)c1occc(=O)c1O [Compound E-8, 2-[5-(4-fluorobenzyl)furan-2-carbonyl]-3-hydroxypyrane-4-one] | 445 | 157 to 159
CN1CC(C(=O)c2cccc(Cc3ccc(F)cc3)c2)=C(O)C1=O [Compound A-12-a, 4-[3-(4-Fluorobenzyl)benzoyl]-3-hydroxy-1-methyl-1,5-dihydropyrrole-2-one] | 1010 | 135 to 137
O=c1c(O)c(-c2nnc(Cc3ccc(F)cc3)o2)[nH]c2ccccc12 [Compound D-5, 2-[5-(4-fluorobenzyl)-[1,3,4]oxadiazole-2-yl]-3-hydroxy-1H-quinoline-4-one] | 1330 | > 300
Cc1cc(=O)c(O)c(C(=O)c2ccc(Cc3ccc(F)cc3)o2)o1 [Compound E-16, 2-[5-(4-fluorobenzyl)furan-2-carbonyl]-3-hydroxy-6-methylpyrane-4-one] | 366 | 173 to 175
COC(C)(C)c1cc(Cc2ccc(F)cc2)c(C(=O)C2=C(O)C(=O)N(C)C2)o1 [Compound A-158, 4-[3-(4-Fluorobenzyl)-5-(1-methoxy-1-methylethyl)furan-2-carbonyl]-3-hydroxy-1-methyl-1,5-dihydropyrrole-2-one] | 1730 | 144 to 145
CN1CC(c2cc(CCc3ccccc3)ncn2)=C(O)C1=O [Compound B-6-a, 3-Hydroxy-1-methyl-4-(6-phenethylpyrimidine-4-yl)-1,5-dihydropyrrole-2-one] | 5420 | 211 to 213
Cc1[nH]cc(C(=O)c2ccc(Cc3ccc(F)cc3)o2)c(=O)c1O [Compound M-6, 5-[5-(4-fluorobenzyl)furan-2-carbonyl]-3-hydroxy-2-methyl-1H-pyridine-4-one] | 8860 | 190 to 192
CC(C)N1CC(C(=O)c2ccc(Cc3ccc(F)cc3)o2)=C(O)C1=O [Compound A-7, 4-[5-(4-Fluorobenzyl)furan-2-carbonyl]-3-hydroxyl-1-isopropyl-1,5-dihydropyrrole-2-one] | 2210 | 155 to 157
CN1CC(c2ccc(Cc3ccc(F)cc3)cn2)=C(O)C1=O [Compound B-29, 4-[5-(4-Fluorobenzyl)-pyridine-2-yl]-3-hydroxy-1-methyl-1,5-dihydropyrrole-2-one] | 402 | 204 to 206
CC(C)Oc1cc(F)ccc1Cc1ccc(C(=O)C2=C(O)C(=O)N(C)C2)o1 [Compound A-141-k, 4-[5-(4-Fluoro-2-isopropoxybenzyl)furan-2-carbonyl]-3-hydroxy-1-methyl-1,5-dihydropyrrole-2-one] | 1820 | 126 to 129
CN1CC(C(=O)c2occc2Cc2ccc(F)cc2)=C(O)C1=O [Compound A-50, 4-[3-(4-Fluorobenzyl)furan-2-carbonyl]-3-hydroxy-1-methyl-1,5-dihydropyrrole-2-one] | 507 | 208 to 210
O=C(C1=C(O)C(=O)N(C2CC2)C1)c1ccc(Cc2ccc(F)cc2)o1 [Compound A-17, 1-Cyclopropyl-4-[5-(4-fluorobenzyl)furan-2-carbonyl]-3-hydroxy-1,5-dihydropyrrole-2-one] | 2340 | 158 to 159
O=C1CCCC(C(=O)c2ccc(Cc3ccc(F)cc3)o2)=C1O [Compound F-4, 3-[5-(4-fluorobenzyl)furan-2-carbonyl]-2-hydroxy-2-cyclohexene-1-one] | 1810 | 133 to 134
CN1CC(c2cc(OCc3ccccc3)ncn2)=C(O)C1=O [Compound B-12, 4-(6-Benzyloxypyrimidine-4-yl)-3-hydroxy-1-methyl-1,5-dihydropyrrole-2-one] | 975 | 203 to 204

Reference: patent US9572813B2, “Antiviral agent” (SHIONOGI & CO., LTD., priority 2001, dated 2017)
